Data published in US12084467B2, “Therapeutic compounds for HIV virus infection” (Gilead Sciences, Inc., priority 2021, dated 2024).
Converted amounts (≈) assume the structure as drawn.

What was measured:
physchem = conditions: 25 °C, fassif, thermodynamic from solid
[1] = Kinetic solubility analysis (CLND: total chemiluminescent nitrogen determination); conditions: 1.0% DMSO, 24-hour incubation at ambient temperature, maximum theoretical concentration 100 μM; for pH 2 solubility: 0.1N HCl; for pH 7 solubility: 1×PBS buffer (pH 7.4)
[2] = Solubility in simulated intestinal fluids (FaSSIF / FeSSIF); conditions: 25 °C, thermodynamic from solid
[3] = Oral bioavailability PK in dog; format: in vivo; conditions: Beagle dog, oral gavage, solution vehicle 5% ethanol, 20% propylene glycol, 75% water; based on observed exposure of Intermediate 5 in plasma
[4] = fasted state simulated intestinal fluid (FaSSIF), fassif
[5] = fed state simulated intestinal fluid (FeSSIF), fessif

Structure (SMILES) | solubility (physchem) [µg/mL] | pH 2 solubility [1] [μM] | pH 7 solubility [1] [μM] | solubility [2, 4] [µg/mL] | solubility [2, 5] [µg/mL] | Dog F % (solution) [3] [%]
CC(C)(C#Cc1ccc(-c2ccc(Cl)c3c(N(C(=O)[C@H]4C[C@H]4C(=O)OCOP(=O)(O)O)S(C)(=O)=O)nn(CC(F)(F)F)c23)c([C@H](Cc2cc(F)cc(F)c2)NC(=O)Cn2nc(C(F)(F)F)c3c2C(F)(F)[C@@H]2C[C@H]32)n1)S(C)(=O)=O [Compound 12, (phosphonooxy)methyl (1R,2S)-2-((4-chloro-7-(2-((S)-1-(2-((3bS,4aR)-5,5-difluoro-3-(trifluoromethyl)-3b,4,4a,5-tetrahydro-1H-cyclopropa[3,4]cyclopenta[1,2-c]pyrazol-1-yl)acetamido)-2-(3,5-difluorophenyl)ethyl)-6-(3-methyl-3-(methylsulfonyl)but-1-yn-1-yl)pyridin-3-yl)-1-(2,2,2-trifluoroethyl)-1H-indazol-3-yl)(methylsulfonyl)carbamoyl)cyclopropane-1-carboxylate] | 2100 (≈ 1760 µM) | 1 | 71 | – | – | –
CC(C)(C#Cc1ccc(-c2ccc(Cl)c3c(N(C(=O)[C@H]4C[C@H](C(=O)O)C4)S(C)(=O)=O)nn(CC(F)(F)F)c23)c([C@H](Cc2cc(F)cc(F)c2)NC(=O)Cn2nc(C(F)(F)F)c3c2C(F)(F)[C@@H]2C[C@H]32)n1)S(C)(=O)=O [Compound 13, (1S,3r)-3-((4-chloro-7-(2-((S)-1-(2-((3bS,4aR)-5,5-difluoro-3-(trifluoromethyl)-3b,4,4a,5-tetrahydro-1H-cyclopropa[3,4]cyclopenta[1,2-c]pyrazol-1-yl)acetamido)-2-(3,5-difluorophenyl)ethyl)-6-(3-methyl-3-(methylsulfonyl)but-1-yn-1-yl)pyridin-3-yl)-1-(2,2,2-trifluoroethyl)-1H-indazol-3-yl)(methylsulfonyl)carbamoyl)cyclobutane-1-carboxylic acid] | 9 (≈ 8.22 µM) | 1 | 15 | – | – | –
CC(C)(C#Cc1ccc(-c2ccc(Cl)c3c(N(C(=O)[C@H]4C[C@@H](C(=O)O)C4)S(C)(=O)=O)nn(CC(F)(F)F)c23)c([C@H](Cc2cc(F)cc(F)c2)NC(=O)Cn2nc(C(F)(F)F)c3c2C(F)(F)[C@@H]2C[C@H]32)n1)S(C)(=O)=O [Compound 14, ((1R,3s)-3-((4-chloro-7-(2-((S)-1-(2-((3bS,4aR)-5,5-difluoro-3-(trifluoromethyl)-3b,4,4a,5-tetrahydro-1H-cyclopropa[3,4]cyclopenta[1,2-c]pyrazol-1-yl)acetamido)-2-(3,5-difluorophenyl)ethyl)-6-(3-methyl-3-(methylsulfonyl)but-1-yn-1-yl)pyridin-3-yl)-1-(2,2,2-trifluoroethyl)-1H-indazol-3-yl)(methylsulfonyl)carbamoyl)cyclobutane-1-carboxylic acid)] | 9 (≈ 8.22 µM) | 1 | 8 | – | – | –
CC(C)(C#Cc1ccc(-c2ccc(Cl)c3c(N(C(=O)N4CCC[C@H]4C(=O)OCOP(=O)(O)O)S(C)(=O)=O)nn(CC(F)(F)F)c23)c([C@H](Cc2cc(F)cc(F)c2)NC(=O)Cn2nc(C(F)(F)F)c3c2C(F)(F)[C@@H]2C[C@H]32)n1)S(C)(=O)=O [Compound 27, (phosphonooxy)methyl ((4-chloro-7-(2-((S)-1-(2-((3bS,4aR)-5,5-difluoro-3-(trifluoromethyl)-3b,4,4a,5-tetrahydro-1H-cyclopropa[3,4]cyclopenta[1,2-c]pyrazol-1-yl)acetamido)-2-(3,5-difluorophenyl)ethyl)-6-(3-methyl-3-(methylsulfonyl)but-1-yn-1-yl)pyridin-3-yl)-1-(2,2,2-trifluoroethyl)-1H-indazol-3-yl)(methylsulfonyl)carbamoyl)-L-prolinate] | 512 (≈ 420 µM) | 2 | 68 | – | – | –
CC(C)(C#Cc1ccc(-c2ccc(Cl)c3c(N(C(=O)N4CC[C@@H]4CN(CC(=O)O)C(=O)OCOP(=O)(O)O)S(C)(=O)=O)nn(CC(F)(F)F)c23)c([C@H](Cc2cc(F)cc(F)c2)NC(=O)Cn2nc(C(F)(F)F)c3c2C(F)(F)[C@@H]2C[C@H]32)n1)S(C)(=O)=O [Compound 36, N—(((R)-1-((4-chloro-7-(2-((S)-1-(2-((3bS,4aR)-5,5-difluoro-3-(trifluoromethyl)-3b,4,4a,5-tetrahydro-1H-cyclopropa[3,4]cyclopenta[1,2-c]pyrazol-1-yl)acetamido)-2-(3,5-difluorophenyl)ethyl)-6-(3-methyl-3-(methylsulfonyl)but-1-yn-1-yl)pyridin-3-yl)-1-(2,2,2-trifluoroethyl)-1H-indazol-3-yl)(methylsulfonyl)carbamoyl)azetidin-2-yl)methyl)-N-(((phosphonooxy)methoxy)carbonyl)glycine] | – | 1 | 100 | > 7400 | > 5930 | –
CC(C)(C#Cc1ccc(-c2ccc(Cl)c3c(N(C(=O)N4CCOC[C@@H]4CN(CC(=O)O)C(=O)OCOP(=O)(O)O)S(C)(=O)=O)nn(CC(F)(F)F)c23)c([C@H](Cc2cc(F)cc(F)c2)NC(=O)Cn2nc(C(F)(F)F)c3c2C(F)(F)[C@@H]2C[C@H]32)n1)S(C)(=O)=O [Compound 37, N—(((S)-4-((4-chloro-7-(2-((S)-1-(2-((3bS,4aR)-5,5-difluoro-3-(trifluoromethyl)-3b,4,4a,5-tetrahydro-1H-cyclopropa[3,4]cyclopenta[1,2-c]pyrazol-1-yl)acetamido)-2-(3,5-difluorophenyl)ethyl)-6-(3-methyl-3-(methylsulfonyl)but-1-yn-1-yl)pyridin-3-yl)-1-(2,2,2-trifluoroethyl)-1H-indazol-3-yl)(methylsulfonyl)carbamoyl)morpholin-3-yl)methyl)-N-(((phosphonooxy)methoxy)carbonyl)glycine] | – | 2 | 100 | 6200 (≈ 4690 µM) | > 8370 | –
CC(C)(C#Cc1ccc(-c2ccc(Cl)c3c(NS(C)(=O)=O)nn(CC(F)(F)F)c23)c([C@H](Cc2cc(F)cc(F)c2)NC(=O)Cn2nc(C(F)(F)F)c3c2C(F)(F)[C@@H]2C[C@H]32)n1)S(C)(=O)=O [Intermediate 5, N—((S)-1-(3-(4-chloro-3-(methylsulfonamido)-1-(2,2,2-trifluoroethyl)-1H-indazol-7-yl)-6-(3-methyl-3-(methylsulfonyl)but-1-yn-1-yl)pyridin-2-yl)-2-(3,5-difluorophenyl)ethyl)-2-((3bS,4aR)-5,5-difluoro-3-(trifluoromethyl)-3b,4,4a,5-tetrahydro-1H-cyclopropa[3,4]cyclopenta[1,2-c]pyrazol-1-yl)acetamide, reference compound] | – | 0.11 | 0.32 | – | – | 16
